Results from patent publication US20100256379A1, “ANTI-VIRAL AGENT CONTAINING HETEROCYCLIC AROMATIC COMPOUND AS ACTIVE INGREDIENT” (Kagoshima University, priority 2007, published 2010).
Like-named read-outs stand apart in the source and are kept apart here. Marks after values point to notes of the source that are not given here.

Key:
[1] = test system: Madin-Darby bovine kidney cell (MDBK cell); assay: Cytotoxicity: inhibition of growth of uninfected MDBK cells (TetraColor One MTT); assay type: cell-based
Procedure: (§1) Also, after addition of the compound according to the present invention to medium containing cells not infected with any virus, the percent inhibition of cell growth of the compound according to the present invention is measured. For example, with the use of a reagent for viable cell measurement, such as a water soluble MTT solution TetraColor One™ (Seikagaku Corporation), the percent inhibition of cell growth can be measured.
(§2) At the same time, for measurement of toxicity of each compound, the compound was added to a microtiter plate containing MDBK cells not infected with the virus as described above, followed by 3 days of culture. After 3 days of culture, TetraColor One™ was added to a microtiter plate at 10 μl per well. After 1 hour of incubation at 37° C., the microtiter plate was applied to a microplate reader and then absorbance was measured at 450 nm/690 nm.
(§3) The percent inhibition (%) of cell growth was calculated by the following formula based on the thus obtained absorbance: […]

[2] = test system: Bovine viral diarrhea virus (BVDV) Nose strain; assay: Anti-BVDV activity: inhibition of viral replication in BVDV-infected MDBK cells (LDH in culture supernatant); assay type: cell-based; conditions: for EC50: Bovine viral diarrhea virus isolates and strains, 72 h, read-out: EC50 (50% effective concentration, 50% inhibition of viral replication); for Selectivity index (CC50/EC50): CC50 in uninfected MDBK cells / EC50 against BVDV; for anti-BVDV effects (in words): summary statements on the tables
Text: The antiviral activity of the compound according to the present invention can be evaluated by a method that involves infecting cells with a virus, adding the compound according to the present invention to medium before, after, or simultaneously with infection, and then measuring the percent inhibition of viral replication. Specifically, such percent inhibition of viral replication can be evaluated by measuring the activity of lactate dehydrogenase (LDH) in the culture supernatant of the virus-infected cells using an LDH cytotoxicity detection kit (Takara Biochemicals), for example. LDH is an enzyme that exists in the cytoplasm and is generally almost never released extracellularly because of the presence of cell membrane. Meanwhile, when cells are infected with a virus and then the virus replicated within the cells, infected cells die. As a result of viral infection, cell membrane is disrupted and then LDH is released into the culture supernatant. […] That is, the degree of cell disruption due to viral replication and the LDH level in the culture supernatant show extremely good positive correlation. Therefore, the antiviral activity (inhibition of viral replication) of the compound according to the present invention can be measured via quantitative determination of LDH in the culture supernatant.
Furthermore, the selectivity index (CC50/EC50) is calculated. The higher the selectivity index, the higher the effects of inhibiting viral replication alone without damaging cells. Therefore, the antiviral activity of the compound according to the present invention can be evaluated using the selectivity index as an index. Also, the antiviral activity of the compound according to the present invention can be evaluated by assay (e.g., Western blot analysis, ELISA, or flow cytometry) for measuring the viral antigen level in virus-infected cells cultured in medium containing the compound according to the present invention or assay (e.g., Northern blot analysis or quantitative RT-PCR) for measuring the virus gene (RNA) level in virus-infected cells.
1) Cell: Madin-Darby bovine kidney cell (hereinafter, referred to as “MDBK cell”);
2) Virus: Bovine viral diarrhea virus (hereinafter, referred to as “BVDV”) Nose strain;
MDBK cells (2×10^5 cells/ml) were infected with BVDV at an MOI of 0.01 (multiplicity of infection, MOI=0.01). Next, a solution containing BVDV-infected cells was dispensed into a 96-well flat bottom microtiter plate at 100 μl per well, simultaneously with the addition of a compound subjected to 5-fold serial dilution, followed by 3 days of culture at 37° C. (5% CO2).
After 3 days of culture, 50 μl of the cultured supernatant was collected and then transferred to another microtiter plate and then 50 μl of the reaction solution of an LDH cytotoxicity detection kit was added. After 30 minutes of culture at room temperature, the microtiter plate was applied to a microplate reader (BioRad Laboratories) and then absorbance was measured at 490 nm/690 nm.
The percent inhibition (%) of viral replication was calculated by the following formula based on the thus obtained absorbance:
100−[(ODT)V−(ODC)M]/[(ODC)V−(ODC)M]×100(%)

[3] = Cytotoxicity: inhibition of growth of uninfected MDBK cells (TetraColor One MTT); assay type: cell-based, bovine; conditions: bovine
Procedure: as §1, §2, §3

[4] = BVDV-infected MDBK cells, MOI 0.01, 3 days of culture, LDH readout, mean of at least two experiments
[5] = read-out: CC50 (50% cytotoxicity concentration, 50% inhibition of cell growth), uninfected MDBK cells, 3 days of culture, MTT readout, mean of at least two experiments

Row | Molecule | CC50 ([1]; bovine, 3 days) [µM] | EC50 [2, 4] [µM] | Selectivity index (CC50/EC50) [2] | CC50 at 3 days [3] [µM] | anti-BVDV effects (in words) [2] | other results
1 | Cc1cc2[nH]c3ccccc3c2cn1 [Compound 3] | 70 | 2.2 | 31.8 | – | – | –
2 | Cc1nccc2[nH]c3ccccc3c12 [Compound 1] | 9.7 | 0.58 | 16.7 | – | – | –
3 | Cc1ccc2c(c1)c1cnccc1n2C [Compound 15] | – | 0.35 | 22.0 | 7.7 | – | –
4 | c1ccc2c(c1)Cc1ccccc1-2 [Fluorene, reference compound] | > 100 | > 100 | – | – | – | –
5 | Cc1ccc2c(c1)[nH]c1ccncc12 [Compound 7] | 24 | 1.1 | 21.8 | – | – | –
6 | c1ccc2c(c1)oc1ccccc12 [Dibenzofuran, reference compound] | – | – | – | – | – | CC50 [1, 5]: > 100 µM; EC50 ([2]; MDBK): > 100 µM
7 | Cc1ccc2c3cnccc3n(C)c2c1 [Compound 14] | – | 0.3 | 133.3 | 40 | – | –
8 | Cc1cccc2[nH]c3ccncc3c12 [Compound 9] | 16 | 1.2 | 13.3 | – | – | –
9 | c1ccc2c(c1)[nH]c1ccncc12 [γ-Carboline] | – | 2.1 | 19.5 | 41 | selective anti-BVDV effects | –
10 | Cn1ccc2nc3ccccc3c-2c1 [Compound 2] | 65 | 4.3 | 15.1 | – | – | –
11 | Cc1cc2c(cn1)c1ccccc1n2C [Compound 11] | – | 0.062 | 338.7 | 21 | activity equivalent to that of compound 12 and the highest selectivity | –
12 | c1ccc2c(c1)[nH]c1ccccc12 [Carbazole, reference compound] | – | – | – | – | – | CC50 [1, 5]: > 100 µM; EC50 ([2]; MDBK): > 100 µM
13 | Interferon-α | – | – | – | – | – | EC50 (50% effective concentration, 50% inhibition of viral replication) ([2]; interferon-α, BVDV-infected MDBK cells, MOI 0.01, 3 days, LDH readout): 5.5* IU/well
14 | Cn1c2ccccc2c2cnccc21 [Compound 5] | 29 | 0.26 | 111.5 | – | strongest activity and the highest selectivity | –
15 | c1ccc2c(c1)[nH]c1ncccc12 [α-Carboline, reference compound] | > 100 | 91 | >1.1 | – | lower than those of β-carboline and γ-carboline | –
16 | Cc1cccc2c1c1cnccc1n2C [Compound 16] | – | 0.29 | 22.1 | 6.4 | – | –
17 | Cc1cncc2c3ccccc3n(C)c12 [Compound 12] | – | 0.043 | 223.2 | 9.6 | strongest activity and high selectivity | –
18 | NC(=O)c1ncn([C@@H]2O[C@H](CO)[C@@H](O)[C@H]2O)n1 [Ribavirin, 1-β-D-ribofuranousyl-1,2,4-triazole-3-carboxamide, reference compound] | – | 3.9 | – | 15.1 | selective anti-BVDV effects | –
19 | Cc1cccc2c3cnccc3n(C)c12 [Compound 13] | – | 0.3 | 36.7 | 11 | – | –
20 | Cc1ccc2[nH]c3ccncc3c2c1 [Compound 8] | 12 | 3 | 4 | – | – | –
21 | Cc1cccc2c1[nH]c1ccncc12 [Compound 6] | 24 | 1.7 | 14.1 | – | – | –
22 | Cc1nccc2c1c1ccccc1n2C [Compound 10] | – | 0.2 | 26.0 | 5.2 | – | –
23 | c1ccc2c(c1)[nH]c1cccnc12 [δ-Carboline, reference compound] | > 100 | > 100 | – | – | lower than those of β-carboline and γ-carboline | –
24 | Cc1cncc2c1[nH]c1ccccc12 [Compound 4] | 21 | 0.55 | 38.2 | – | – | –
25 | c1ccc2c(c1)[nH]c1cnccc12 [β-Carboline] | – | – | 10.2 | – | selective anti-BVDV effects | CC50 at 3 days ([3]; uninfected MDBK cells, 3 days of culture, MTT readout, mean of at least two experiments): 87 µM; EC50 ([2]; MDBK): 8.5 µM
